Experimental data published in ChEMBL document CHEMBL1152560, “Substituted 2-arylbenzothiazoles as kinase inhibitors: hit-to-lead optimization” (Bioorg Med Chem, 2009).

How the values were obtained:
[1] = Residual activity of PKA at 10 uM by microplate scintillation counting
[2] = target: Serine/threonine-protein kinase MARK2 (Homo sapiens) (UniProt Q7KZI7); test: Residual activity of MARK2 at 1 uM by microplate scintillation counting
[3] = target: Tyrosine-protein kinase HCK (Homo sapiens) (UniProt P08631); test: Residual activity of HCK at 0.1 uM by microplate scintillation counting
[4] = target: Protein kinase C theta type (Homo sapiens) (UniProt Q04759); test: Residual activity of PKCtheta at 1 uM by microplate scintillation counting
[5] = target: T1, Eukaryotic elongation factor 2 kinase (Homo sapiens) (UniProt O00418); test: Residual activity of EEF2K at 10 uM by microplate scintillation counting
T1 sequence (whole entry): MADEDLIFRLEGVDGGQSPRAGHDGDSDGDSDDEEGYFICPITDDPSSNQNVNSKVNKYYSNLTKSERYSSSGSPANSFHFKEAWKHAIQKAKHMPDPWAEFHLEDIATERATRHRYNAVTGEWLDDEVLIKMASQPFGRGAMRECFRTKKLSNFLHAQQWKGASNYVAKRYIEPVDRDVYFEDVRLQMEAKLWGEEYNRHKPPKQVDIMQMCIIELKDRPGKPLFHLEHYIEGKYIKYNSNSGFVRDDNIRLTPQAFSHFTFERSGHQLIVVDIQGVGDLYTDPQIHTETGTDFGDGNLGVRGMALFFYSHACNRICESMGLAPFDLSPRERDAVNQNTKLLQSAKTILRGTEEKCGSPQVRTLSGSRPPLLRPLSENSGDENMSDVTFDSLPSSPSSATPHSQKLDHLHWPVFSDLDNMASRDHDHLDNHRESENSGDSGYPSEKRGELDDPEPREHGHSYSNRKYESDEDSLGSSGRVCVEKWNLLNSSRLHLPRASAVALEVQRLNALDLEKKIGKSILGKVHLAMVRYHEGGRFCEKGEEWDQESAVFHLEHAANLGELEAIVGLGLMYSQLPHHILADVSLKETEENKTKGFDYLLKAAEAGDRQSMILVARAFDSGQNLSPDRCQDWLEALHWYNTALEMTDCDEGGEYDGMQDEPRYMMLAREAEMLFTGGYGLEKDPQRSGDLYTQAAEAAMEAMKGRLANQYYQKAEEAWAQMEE

[6] = target: Macrophage colony-stimulating factor 1 receptor (Homo sapiens) (UniProt P07333); test: Residual activity of CSF1R at 0.1 uM by microplate scintillation counting
[7] = target: Tyrosine-protein kinase CSK (Homo sapiens) (UniProt P41240); test: Residual activity of CSK at 0.1 uM by microplate scintillation counting
[8] = target: T2, G protein-coupled receptor kinase 3 (Homo sapiens) (UniProt P35626); test: Residual activity of GRK3 at 10 uM by microplate scintillation counting
T2 sequence (whole entry): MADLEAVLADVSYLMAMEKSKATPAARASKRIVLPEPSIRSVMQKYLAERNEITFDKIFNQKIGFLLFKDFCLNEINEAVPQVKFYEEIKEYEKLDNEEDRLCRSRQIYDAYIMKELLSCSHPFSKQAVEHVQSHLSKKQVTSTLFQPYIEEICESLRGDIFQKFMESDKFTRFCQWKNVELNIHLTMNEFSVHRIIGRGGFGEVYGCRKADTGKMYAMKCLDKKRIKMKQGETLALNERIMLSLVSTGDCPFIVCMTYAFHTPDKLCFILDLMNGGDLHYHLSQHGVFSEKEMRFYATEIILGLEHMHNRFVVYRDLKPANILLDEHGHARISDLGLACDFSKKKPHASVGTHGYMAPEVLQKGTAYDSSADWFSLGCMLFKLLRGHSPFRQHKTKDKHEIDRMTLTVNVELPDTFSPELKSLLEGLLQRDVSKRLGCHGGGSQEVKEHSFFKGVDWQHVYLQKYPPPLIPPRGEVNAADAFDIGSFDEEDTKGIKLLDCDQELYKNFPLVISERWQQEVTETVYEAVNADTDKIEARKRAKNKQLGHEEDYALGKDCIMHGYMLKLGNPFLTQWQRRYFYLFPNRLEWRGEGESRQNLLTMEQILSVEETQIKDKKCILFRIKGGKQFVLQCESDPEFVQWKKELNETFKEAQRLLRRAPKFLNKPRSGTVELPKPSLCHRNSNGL

[9] = target: T3, Tyrosine-protein kinase Mer (Homo sapiens) (UniProt Q12866); test: Residual activity of MERTK at 10 uM by microplate scintillation counting
T3 sequence (whole entry): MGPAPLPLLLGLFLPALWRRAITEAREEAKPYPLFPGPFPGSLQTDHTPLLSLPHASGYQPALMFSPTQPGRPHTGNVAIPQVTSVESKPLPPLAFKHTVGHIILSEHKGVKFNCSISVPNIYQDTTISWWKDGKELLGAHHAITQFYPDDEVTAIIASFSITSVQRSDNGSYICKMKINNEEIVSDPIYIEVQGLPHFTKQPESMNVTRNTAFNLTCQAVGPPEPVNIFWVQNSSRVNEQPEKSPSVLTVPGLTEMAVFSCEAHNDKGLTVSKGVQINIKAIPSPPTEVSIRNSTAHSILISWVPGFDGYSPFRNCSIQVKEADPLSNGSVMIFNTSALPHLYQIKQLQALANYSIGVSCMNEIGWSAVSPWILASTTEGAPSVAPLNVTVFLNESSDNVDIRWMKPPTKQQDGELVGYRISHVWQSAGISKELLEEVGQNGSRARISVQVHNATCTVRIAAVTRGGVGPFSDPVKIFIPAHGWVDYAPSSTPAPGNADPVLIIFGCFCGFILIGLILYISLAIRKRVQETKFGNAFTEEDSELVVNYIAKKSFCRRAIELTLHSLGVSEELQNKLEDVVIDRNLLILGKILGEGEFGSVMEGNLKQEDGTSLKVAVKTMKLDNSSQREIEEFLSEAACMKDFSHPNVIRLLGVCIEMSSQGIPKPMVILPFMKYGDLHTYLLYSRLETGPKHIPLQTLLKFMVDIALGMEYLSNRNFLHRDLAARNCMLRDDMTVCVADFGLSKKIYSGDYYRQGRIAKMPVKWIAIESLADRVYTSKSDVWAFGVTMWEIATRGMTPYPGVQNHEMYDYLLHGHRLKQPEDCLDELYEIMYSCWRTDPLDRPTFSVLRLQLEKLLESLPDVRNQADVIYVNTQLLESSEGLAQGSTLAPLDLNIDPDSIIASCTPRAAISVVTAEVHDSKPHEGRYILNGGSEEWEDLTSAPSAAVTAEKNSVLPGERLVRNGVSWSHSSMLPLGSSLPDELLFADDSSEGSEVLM

[10] = target: Cyclin-dependent kinase 1/cyclin B1 (Homo sapiens) (UniProt P06493+P14635); test: Residual activity of CDK1/CyclinB1 at 0.1 uM by microplate scintillation counting; type: protein-complex assay
[11] = target: Tyrosine-protein kinase ABL1 (Homo sapiens) (UniProt P00519); test: Residual activity of wild type ABL1 at 1 uM by microplate scintillation counting
[12] = target: Ephrin type-A receptor 2 (Homo sapiens) (UniProt P29317); test: Residual activity of EPHA2 at 0.1 uM by microplate scintillation counting
Ephrin type-A receptor 2 (Homo sapiens), sequence (P29317 whole entry): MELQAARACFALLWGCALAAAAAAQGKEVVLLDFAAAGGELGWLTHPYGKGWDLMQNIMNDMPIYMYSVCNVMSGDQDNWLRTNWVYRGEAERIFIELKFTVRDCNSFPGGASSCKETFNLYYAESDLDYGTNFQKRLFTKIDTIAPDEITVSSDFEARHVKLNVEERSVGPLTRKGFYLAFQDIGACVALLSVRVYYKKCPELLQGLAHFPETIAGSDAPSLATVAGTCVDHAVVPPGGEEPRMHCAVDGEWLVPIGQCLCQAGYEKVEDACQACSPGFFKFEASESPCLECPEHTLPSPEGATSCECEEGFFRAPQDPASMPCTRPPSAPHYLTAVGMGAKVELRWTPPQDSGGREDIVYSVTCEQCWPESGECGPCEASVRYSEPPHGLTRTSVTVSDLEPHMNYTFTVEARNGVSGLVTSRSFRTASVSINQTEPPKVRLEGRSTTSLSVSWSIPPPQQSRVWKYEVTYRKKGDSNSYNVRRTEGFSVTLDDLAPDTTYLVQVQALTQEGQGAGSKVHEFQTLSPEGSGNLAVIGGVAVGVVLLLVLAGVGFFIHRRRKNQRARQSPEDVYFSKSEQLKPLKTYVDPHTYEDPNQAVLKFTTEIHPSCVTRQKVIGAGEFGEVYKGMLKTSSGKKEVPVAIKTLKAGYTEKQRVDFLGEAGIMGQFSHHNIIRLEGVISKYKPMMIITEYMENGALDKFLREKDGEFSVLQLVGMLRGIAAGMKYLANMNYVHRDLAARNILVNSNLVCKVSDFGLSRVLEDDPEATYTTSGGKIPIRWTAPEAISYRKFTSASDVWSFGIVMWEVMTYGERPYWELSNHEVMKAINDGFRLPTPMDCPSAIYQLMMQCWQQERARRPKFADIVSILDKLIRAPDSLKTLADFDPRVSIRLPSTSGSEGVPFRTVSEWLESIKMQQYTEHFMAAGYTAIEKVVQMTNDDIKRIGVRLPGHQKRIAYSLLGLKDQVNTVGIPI

Protein kinase C theta type (Homo sapiens), sequence (Q04759 whole entry, looked up): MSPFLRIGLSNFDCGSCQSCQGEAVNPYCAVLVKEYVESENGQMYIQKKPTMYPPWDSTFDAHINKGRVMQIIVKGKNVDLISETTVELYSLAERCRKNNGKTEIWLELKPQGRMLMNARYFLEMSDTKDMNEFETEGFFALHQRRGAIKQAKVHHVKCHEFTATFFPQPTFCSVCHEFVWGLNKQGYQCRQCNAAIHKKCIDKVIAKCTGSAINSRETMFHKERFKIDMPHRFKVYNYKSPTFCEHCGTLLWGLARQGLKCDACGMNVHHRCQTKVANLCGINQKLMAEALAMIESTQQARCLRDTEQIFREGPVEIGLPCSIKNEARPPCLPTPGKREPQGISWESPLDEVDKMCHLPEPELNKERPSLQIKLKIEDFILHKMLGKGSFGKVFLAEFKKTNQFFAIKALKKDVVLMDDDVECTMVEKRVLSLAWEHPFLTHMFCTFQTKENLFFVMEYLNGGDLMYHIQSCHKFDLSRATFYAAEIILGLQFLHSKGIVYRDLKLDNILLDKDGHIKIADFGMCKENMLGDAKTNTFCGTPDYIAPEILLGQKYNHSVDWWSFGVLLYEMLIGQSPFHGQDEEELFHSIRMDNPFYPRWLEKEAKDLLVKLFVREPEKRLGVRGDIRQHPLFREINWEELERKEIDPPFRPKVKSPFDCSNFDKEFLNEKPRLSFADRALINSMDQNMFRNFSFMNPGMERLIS
Macrophage colony-stimulating factor 1 receptor (Homo sapiens), sequence (P07333 whole entry): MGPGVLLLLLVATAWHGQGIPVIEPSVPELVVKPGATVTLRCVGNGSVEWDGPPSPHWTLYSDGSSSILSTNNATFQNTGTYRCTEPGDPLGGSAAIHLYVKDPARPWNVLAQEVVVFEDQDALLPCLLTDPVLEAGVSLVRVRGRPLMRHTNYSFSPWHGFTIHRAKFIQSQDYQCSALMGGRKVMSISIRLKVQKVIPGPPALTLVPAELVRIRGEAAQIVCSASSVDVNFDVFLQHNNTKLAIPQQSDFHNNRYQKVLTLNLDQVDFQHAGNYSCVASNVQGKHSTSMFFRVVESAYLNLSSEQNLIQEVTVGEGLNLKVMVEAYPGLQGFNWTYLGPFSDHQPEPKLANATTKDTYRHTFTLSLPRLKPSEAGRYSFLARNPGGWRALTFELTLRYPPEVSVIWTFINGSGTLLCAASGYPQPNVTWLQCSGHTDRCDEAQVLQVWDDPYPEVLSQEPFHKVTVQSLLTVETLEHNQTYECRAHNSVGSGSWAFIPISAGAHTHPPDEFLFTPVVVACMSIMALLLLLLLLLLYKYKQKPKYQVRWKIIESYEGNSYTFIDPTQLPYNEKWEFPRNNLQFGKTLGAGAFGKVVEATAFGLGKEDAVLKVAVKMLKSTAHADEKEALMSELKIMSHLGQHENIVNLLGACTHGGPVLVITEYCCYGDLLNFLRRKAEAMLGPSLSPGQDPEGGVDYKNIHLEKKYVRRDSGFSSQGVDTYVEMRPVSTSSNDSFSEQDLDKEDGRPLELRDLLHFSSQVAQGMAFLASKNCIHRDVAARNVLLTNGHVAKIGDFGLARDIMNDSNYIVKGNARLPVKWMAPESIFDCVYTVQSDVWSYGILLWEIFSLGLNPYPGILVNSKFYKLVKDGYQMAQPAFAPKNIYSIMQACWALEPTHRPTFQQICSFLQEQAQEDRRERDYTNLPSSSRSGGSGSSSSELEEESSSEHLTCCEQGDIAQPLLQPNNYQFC
Tyrosine-protein kinase HCK (Homo sapiens), sequence (P08631 2-526 limits assumed): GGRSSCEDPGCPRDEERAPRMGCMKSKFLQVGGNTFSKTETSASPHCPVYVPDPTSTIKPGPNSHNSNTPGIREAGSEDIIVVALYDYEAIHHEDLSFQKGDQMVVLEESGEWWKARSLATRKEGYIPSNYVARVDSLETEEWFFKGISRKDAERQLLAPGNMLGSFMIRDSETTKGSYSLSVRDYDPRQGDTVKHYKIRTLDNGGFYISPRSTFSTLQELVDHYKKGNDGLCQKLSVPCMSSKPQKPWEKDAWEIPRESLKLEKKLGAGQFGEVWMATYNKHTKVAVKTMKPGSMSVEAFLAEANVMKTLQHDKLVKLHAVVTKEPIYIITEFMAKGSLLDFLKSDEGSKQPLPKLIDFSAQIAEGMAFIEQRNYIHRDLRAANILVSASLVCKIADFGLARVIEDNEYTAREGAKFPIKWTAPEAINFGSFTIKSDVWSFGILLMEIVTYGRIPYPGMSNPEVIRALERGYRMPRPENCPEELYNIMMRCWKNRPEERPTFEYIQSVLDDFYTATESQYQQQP
Tyrosine-protein kinase ABL1 (Homo sapiens), sequence (P00519 whole entry): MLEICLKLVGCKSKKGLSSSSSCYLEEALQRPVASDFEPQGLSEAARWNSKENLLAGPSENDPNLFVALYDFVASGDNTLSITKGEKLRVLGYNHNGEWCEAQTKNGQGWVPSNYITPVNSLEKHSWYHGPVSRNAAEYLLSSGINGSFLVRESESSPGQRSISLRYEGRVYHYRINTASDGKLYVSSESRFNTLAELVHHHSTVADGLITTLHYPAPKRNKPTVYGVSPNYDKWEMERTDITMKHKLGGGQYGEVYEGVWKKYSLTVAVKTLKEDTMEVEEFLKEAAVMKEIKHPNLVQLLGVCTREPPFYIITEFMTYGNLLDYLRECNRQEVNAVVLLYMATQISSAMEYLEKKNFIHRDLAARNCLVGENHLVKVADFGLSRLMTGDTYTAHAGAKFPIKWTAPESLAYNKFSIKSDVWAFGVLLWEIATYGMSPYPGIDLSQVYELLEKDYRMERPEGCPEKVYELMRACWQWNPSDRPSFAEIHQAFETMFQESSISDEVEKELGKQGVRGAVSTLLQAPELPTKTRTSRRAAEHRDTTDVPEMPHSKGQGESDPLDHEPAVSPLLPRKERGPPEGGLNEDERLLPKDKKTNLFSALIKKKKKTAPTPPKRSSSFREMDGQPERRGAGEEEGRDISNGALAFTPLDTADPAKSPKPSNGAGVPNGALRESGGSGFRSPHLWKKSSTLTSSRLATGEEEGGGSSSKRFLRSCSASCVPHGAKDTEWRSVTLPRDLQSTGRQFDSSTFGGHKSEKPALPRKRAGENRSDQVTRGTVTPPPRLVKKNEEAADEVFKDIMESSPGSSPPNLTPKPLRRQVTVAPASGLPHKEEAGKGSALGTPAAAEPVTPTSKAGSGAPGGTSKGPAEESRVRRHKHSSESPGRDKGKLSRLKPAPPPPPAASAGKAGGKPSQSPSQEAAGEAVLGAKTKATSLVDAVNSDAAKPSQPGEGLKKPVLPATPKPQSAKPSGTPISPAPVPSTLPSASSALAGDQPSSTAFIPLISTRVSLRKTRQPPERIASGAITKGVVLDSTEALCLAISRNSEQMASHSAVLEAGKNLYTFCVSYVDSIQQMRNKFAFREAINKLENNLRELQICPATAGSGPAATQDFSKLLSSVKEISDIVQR
Serine/threonine-protein kinase MARK2 (Homo sapiens), sequence (Q7KZI7 whole entry): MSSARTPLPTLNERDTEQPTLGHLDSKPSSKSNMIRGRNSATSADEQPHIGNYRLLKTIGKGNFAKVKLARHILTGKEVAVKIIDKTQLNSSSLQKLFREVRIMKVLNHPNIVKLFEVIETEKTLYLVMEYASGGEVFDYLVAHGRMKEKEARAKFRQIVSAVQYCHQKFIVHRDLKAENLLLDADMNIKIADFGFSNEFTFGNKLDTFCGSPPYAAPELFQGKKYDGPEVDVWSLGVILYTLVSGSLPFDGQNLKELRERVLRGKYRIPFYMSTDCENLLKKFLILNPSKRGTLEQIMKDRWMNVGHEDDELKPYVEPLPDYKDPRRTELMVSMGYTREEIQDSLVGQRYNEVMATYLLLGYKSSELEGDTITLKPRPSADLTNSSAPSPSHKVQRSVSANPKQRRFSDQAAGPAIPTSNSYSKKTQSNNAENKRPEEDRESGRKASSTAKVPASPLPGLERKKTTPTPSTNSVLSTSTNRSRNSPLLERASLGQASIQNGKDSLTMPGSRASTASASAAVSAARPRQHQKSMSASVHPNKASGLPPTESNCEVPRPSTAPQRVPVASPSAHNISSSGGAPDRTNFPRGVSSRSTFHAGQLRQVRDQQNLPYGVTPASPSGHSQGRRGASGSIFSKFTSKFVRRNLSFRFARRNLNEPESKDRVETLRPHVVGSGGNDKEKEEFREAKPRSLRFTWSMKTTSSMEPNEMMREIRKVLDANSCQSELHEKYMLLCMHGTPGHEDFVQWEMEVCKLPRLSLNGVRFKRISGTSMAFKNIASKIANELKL

Q: What does the source list for `COc1cc2c(Oc3ccc(-c4nc5ccccc5s4)cc3)ncnc2cc1OCCCN1CCN(C)CC1`?
A: residual activity [1]: 53%; residual activity [2]: 74%; residual activity [3]: 96%; residual activity [4]: 113%; residual activity [5]: 91%; residual activity [6]: 93%; residual activity [7]: 120%; residual activity [8]: 135%; residual activity [9]: 3%; residual activity [10]: 90%; residual activity [11]: 99%; residual activity [12]: 99%

Q: What does the source list for `COc1cc2c(Oc3ccc(-c4nc5ccccc5s4)cc3)ncnc2cc1OCCCN1CCCC1`?
A: residual activity [1]: 78%; residual activity [2]: 86%; residual activity [3]: 97%; residual activity [4]: 111%; residual activity [5]: 104%; residual activity [6]: 120%; residual activity [7]: 111%; residual activity [8]: 110%; residual activity [9]: 1%; residual activity [10]: 84%; residual activity [11]: 100%; residual activity [12]: 76%

Q: With `COc1cc2c(Oc3ccc(-c4nc5ccccc5s4)cc3F)ncnc2cc1OCCCN1CCN(C)CC1` as the compound, how does the residual activity [1] read?
A: The residual activity was 57%.

Q: And the residual activity [2]?
A: Its residual activity is 87%.

Q: And the residual activity [3]?
A: Its residual activity is 115%.

Q: What about the residual activity [4] of the same compound?
A: The residual activity was 100%.

Q: And the residual activity [5]?
A: The residual activity was 120%.

Q: And the residual activity [6]?
A: Its residual activity is 88%.

Q: And the residual activity [7]?
A: Its residual activity is 104%.

Q: What about the residual activity [8] of the same compound?
A: The residual activity was 125%.

Q: And the residual activity [9]?
A: Its residual activity is 2%.

Q: And the residual activity [10]?
A: The residual activity was 87%.

Q: What about the residual activity [11] of the same compound?
A: The residual activity was 110%.

Q: And the residual activity [12]?
A: Its residual activity is 94%.
